Results reported in patent publication US10039812B2, “Therapeutic for treating clostridium difficile infection” (priority 2012, dated 2018).
Like-named read-outs stand apart in the source and are kept apart here. Where no end group is shown, it is not given here.

Experiments:
[1] = tested on: C. difficile strain 630Δerm; assay: Inhibition of biofilm formation in TC flasks
[2] = tested on: 630Δerm C. difficile biofilms; assay: DNase treatment of biofilms visualised by confocal microscopy; assay type: cell-based, Clostridium difficile; conditions: for Degradation of the biofilm (confocal microscopy): 15 minutes
Description: The untreated controls were incubated for 15 minutes with 0.15 M NaCl and washed with 1×PBS. These coverslips were mounted onto glass slides, a coverslip was applied over a 50% glycerol mounting media and these were sealed with clear nail varnish. The slides were visualised under oil immersion using a ×40 objective using a laser confocal microscope (Zeiss microscope).

[3] = tested on: C. difficile 630Δerm biofilm; assay: DNase, RNase and proteinase K digests of biofilm (floc) in liquid culture; conditions: 15 minute treatment, room temperature
[4] = tested on: C. difficile R20291 biofilm; assay: DNase, RNase and proteinase K digests of biofilm in liquid culture; conditions: 15 minutes
B. subtilis biofilms = conditions: cited from earlier work
[5] = tested on: C. difficile strain 630Δerm; assay type: cell-based, Clostridium difficile; conditions: for Effect on biofilm (disassembly): 3 μM D-tyrosine, 2 mM D-methionine, 5 mM D-tryptophan, 8.5 mM D-leucine, mixture 2.5 nM each (FIG. 12)
[6] = tested on: C. difficile strain R20291; assay type: cell-based, Clostridium difficile
S. aureus = conditions: cited from earlier work; for Biofilm disassembly: 10 μM, 100 μM and 500 μM
[7] = 10 μg/ml added prior to inoculation, 6 day incubation, static and shaking
[8] = 3 μM D-tyrosine, 2 mM D-methionine, 5 mM D-tryptophan, 8.5 mM D-leucine, mixture 2.5 nM each

DNase
Bacterial growth (turbidity of media) [1, 7]: turbid, indicating bacterial growth | Biofilm formation (flocs or aggregates) [1, 7]: no flocs or aggregates were observed | Formation of biofilm in liquid media ([1]; 10 mg/ml in the growth media, incubated statically for six days (FIG. 9)): inhibits the formation of biofilm | Degradation of the biofilm (confocal microscopy) ([2]; 1 ug DNase): incomplete degradation | Degradation of the biofilm (confocal microscopy) ([2]; 10 ug DNase): incomplete degradation | Degradation of the biofilms (confocal microscopy) ([2]; DNase for 15 minutes, BHIS and YP media, compared to untreated controls): biofilms were absent | Degradation of the biofilm (floc produced in static culture) ([3]; 100 ug/ml): Degradation of the biofilm was observed | Degradation of the biofilm (floc produced in static culture) ([3]; 1 mg/ml): Degradation of the biofilm was observed | Degradation of the biofilm ([4]; 1 mg/ml): degradation of the biofilm observed | Degradation of the biofilm [4]: degradation of the biofilm observed

N[C@H](Cc1c[nH]c2ccccc12)C(=O)O [D-tryptophan]
Biofilm disassembly (B. subtilis biofilms; [8]): disassembled | Biofilm formation [5]: increased the biofilm formation | Disruption of biofilms [5]: not disrupted | Effect on biofilm (disassembly) [5]: no significant effect | Biofilm formation [6]: increased the biofilm formation | Disruption of biofilms [6]: not disrupted | Effect on biofilm (disassembly) [6]: no significant effect

CC(C)C[C@@H](N)C(=O)O [D-leucine]
Biofilm disassembly (B. subtilis biofilms; [8]): disassembled | Effect on biofilm formation [5]: ineffective | Growth of the bacteria [5]: inhibited | Effect on biofilm (disassembly) [5]: no significant effect | Effect on biofilm (disassembly) [6]: no significant effect | Effect on biofilm formation [6]: ineffective | Growth of the bacteria [6]: reduced

Human beta-defensin 3: cationic peptide shown to inhibit biofilm formation in S. aureus (GIINTLQKYYCRVRGGRCAVLSCLPKEEQIGKCSTRGRKCCRRKK; ends and bridges not checked; cysteine pairing not given here; UniProt P81534 23-67, looked up)
Inhibition of biofilm formation (S. aureus): inhibit biofilm formation

N[C@H](Cc1ccc(O)cc1)C(=O)O [D-tyrosine]
Biofilm disassembly (S. aureus): disassembled | Biofilm disassembly (B. subtilis biofilms; [8]): disassembled | Effect on biofilm (disassembly) [5]: no significant effect | Effect on biofilm (disassembly) [6]: no significant effect

CSCC[C@@H](N)C(=O)O [D-methionine]
Biofilm disassembly (B. subtilis biofilms; [8]): disassembled | Effect on biofilm (disassembly) [5]: no significant effect | Effect on biofilm (disassembly) [6]: no significant effect

N[C@H](Cc1ccccc1)C(=O)O [D-phenylalanine]
Biofilm disassembly (S. aureus): disassembled

NCCCNCCCN [norspermidine]
Biofilm disassembly (B. subtilis biofilms; norspermidine at 100, 50 and 25 μM): disassemble biofilms | Biofilm level [5]: significantly reduced | Disassembly of biofilm performed in tissue culture flasks [5]: not disrupted | Disassembly of biofilms [5]: does not disassemble biofilms | Viability [5]: slight decrease in viability | Biofilm formation on addition to biofilm cultures [6]: enhances the biofilm formation | Disassembly of biofilms [6]: does not disassemble biofilms

O=C(O)[C@H]1CCCN1 [D-proline]
Biofilm disassembly (S. aureus): disassembled
